Data published in PubChem BioAssay (NCI).
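Exposure lasted 48 hours, with cells grown in 96-well plates and compounds tested at five concentrations. The concentration for 50% growth inhibition is given as GI50. TGI marks complete inhibition of growth.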

Key:
Experiment in all cases: growth of human tumour cells (NCI), 48 h
OVCAR-8 ovarian = tested on: OVCAR-8 ovarian
UACC-257 melanoma = tested on: UACC-257 melanoma
NCI-H23 lung = tested on: NCI-H23 lung
TK-10 renal = tested on: TK-10 renal
COLO 205 colon = tested on: COLO 205 colon
MCF7 breast = tested on: MCF7 breast
PC-3 prostate = tested on: PC-3 prostate
MDA-MB-435 = tested on: MDA-MB-435
LOX IMVI melanoma = tested on: LOX IMVI melanoma
NCI-H522 lung = tested on: NCI-H522 lung
A549 NSCLC = tested on: A549 NSCLC
UACC-62 melanoma = tested on: UACC-62 melanoma
BT-549 breast = tested on: BT-549 breast
SK-OV-3 ovarian = tested on: SK-OV-3 ovarian
SK-MEL-2 melanoma = tested on: SK-MEL-2 melanoma
HCT-116 colon = tested on: HCT-116 colon
HL-60(TB) leukemia = tested on: HL-60(TB) leukemia
SF-268 CNS = tested on: SF-268 CNS
MOLT-4 leukemia = tested on: MOLT-4 leukemia
HCC-2998 colon = tested on: HCC-2998 colon
EKVX NSCLC = tested on: EKVX NSCLC
OVCAR-5 ovarian = tested on: OVCAR-5 ovarian
UO-31 renal = tested on: UO-31 renal
SF-539 CNS = tested on: SF-539 CNS
SK-MEL-5 melanoma = tested on: SK-MEL-5 melanoma
HCT-15 colon = tested on: HCT-15 colon
NCI-H226 lung = tested on: NCI-H226 lung
KM12 colon = tested on: KM12 colon
SF-295 CNS = tested on: SF-295 CNS
RPMI-8226 leukemia = tested on: RPMI-8226 leukemia
DU-145 prostate = tested on: DU-145 prostate
M14 melanoma = tested on: M14 melanoma
HS 578T breast = tested on: HS 578T breast
A498 renal = tested on: A498 renal
MALME-3M melanoma = tested on: MALME-3M melanoma
SR leukemia = tested on: SR leukemia
RXF 393 renal = tested on: RXF 393 renal
HOP-92 NSCLC = tested on: HOP-92 NSCLC
ACHN renal = tested on: ACHN renal
NCI-H460 lung = tested on: NCI-H460 lung
HT29 colon = tested on: HT29 colon
MDA-MB-231 breast = tested on: MDA-MB-231 breast
U251 CNS = tested on: U251 CNS
OVCAR-4 ovarian = tested on: OVCAR-4 ovarian
IGROV1 ovarian = tested on: IGROV1 ovarian
SW-620 colon = tested on: SW-620 colon
SNB-19 CNS = tested on: SNB-19 CNS
786-0 renal = tested on: 786-0 renal
K-562 leukemia = tested on: K-562 leukemia
CCRF-CEM leukemia = tested on: CCRF-CEM leukemia
SK-MEL-28 melanoma = tested on: SK-MEL-28 melanoma
T-47D breast = tested on: T-47D breast
SNB-75 CNS = tested on: SNB-75 CNS
SN12C renal = tested on: SN12C renal
HOP-62 NSCLC = tested on: HOP-62 NSCLC
NCI/ADR-RES ovarian = tested on: NCI/ADR-RES ovarian

Question: What does the source list for `Oc1ccc(CSc2nnc(-c3ccncc3)o2)c2cccnc12`?
Answer: GI50 (OVCAR-8 ovarian): 0.62 µM; TGI (OVCAR-8 ovarian): > 100 µM; GI50 (UACC-257 melanoma): 2.61 µM; TGI (UACC-257 melanoma): 8.38 µM; GI50 (NCI-H23 lung): 0.951 µM; TGI (NCI-H23 lung): > 100 µM; GI50 (TK-10 renal): 3.36 µM; TGI (TK-10 renal): > 100 µM; GI50 (COLO 205 colon): 4.32 µM; TGI (COLO 205 colon): > 100 µM; GI50 (MCF7 breast): 0.403 µM; TGI (MCF7 breast): > 100 µM; GI50 (PC-3 prostate): 0.626 µM; TGI (PC-3 prostate): 9.34 µM; GI50 (MDA-MB-435): 0.613 µM; TGI (MDA-MB-435): > 100 µM; GI50 (LOX IMVI melanoma): 0.864 µM; TGI (LOX IMVI melanoma): > 100 µM; GI50 (NCI-H522 lung): 0.558 µM; TGI (NCI-H522 lung): > 100 µM; GI50 (A549 NSCLC): 0.767 µM; TGI (A549 NSCLC): > 100 µM; GI50 (UACC-62 melanoma): 2.87 µM; TGI (UACC-62 melanoma): > 100 µM; GI50 (BT-549 breast): 1.71 µM; TGI (BT-549 breast): > 100 µM; GI50 (SK-OV-3 ovarian): 3.11 µM; TGI (SK-OV-3 ovarian): 9.81 µM; GI50 (SK-MEL-2 melanoma): 2.11 µM; TGI (SK-MEL-2 melanoma): 7.66 µM; GI50 (HCT-116 colon): 0.68 µM; TGI (HCT-116 colon): > 100 µM; GI50 (HL-60(TB) leukemia): 2.9 µM; TGI (HL-60(TB) leukemia): 50.7 µM; GI50 (SF-268 CNS): 2.18 µM; TGI (SF-268 CNS): > 100 µM; GI50 (MOLT-4 leukemia): 3.71 µM; TGI (MOLT-4 leukemia): > 100 µM; GI50 (HCC-2998 colon): 3.38 µM; TGI (HCC-2998 colon): > 100 µM; GI50 (EKVX NSCLC): 2.74 µM; TGI (EKVX NSCLC): > 100 µM; GI50 (OVCAR-5 ovarian): 3.54 µM; TGI (OVCAR-5 ovarian): > 100 µM; GI50 (UO-31 renal): 1.83 µM; TGI (UO-31 renal): > 100 µM; GI50 (SF-539 CNS): 2.18 µM; TGI (SF-539 CNS): > 100 µM; GI50 (SK-MEL-5 melanoma): 1.03 µM; TGI (SK-MEL-5 melanoma): 2.63 µM; GI50 (HCT-15 colon): 2.74 µM; TGI (HCT-15 colon): > 100 µM; GI50 (NCI-H226 lung): 3.6 µM; TGI (NCI-H226 lung): > 100 µM; GI50 (KM12 colon): 3.9 µM; TGI (KM12 colon): > 100 µM; GI50 (SF-295 CNS): 1.75 µM; TGI (SF-295 CNS): 8.32 µM; GI50 (RPMI-8226 leukemia): 0.524 µM; TGI (RPMI-8226 leukemia): 4.02 µM; GI50 (DU-145 prostate): 0.779 µM; TGI (DU-145 prostate): > 100 µM; GI50 (M14 melanoma): 2.11 µM; TGI (M14 melanoma): > 100 µM; GI50 (HS 578T breast): 0.751 µM; TGI (HS 578T breast): 58.7 µM; GI50 (A498 renal): 2.64 µM; TGI (A498 renal): 9.52 µM; GI50 (MALME-3M melanoma): 2.03 µM; TGI (MALME-3M melanoma): 6.88 µM; GI50 (SR leukemia): 2.21 µM; TGI (SR leukemia): > 100 µM; GI50 (RXF 393 renal): 2.41 µM; TGI (RXF 393 renal): > 100 µM; GI50 (HOP-92 NSCLC): 0.412 µM; TGI (HOP-92 NSCLC): 2.73 µM; GI50 (ACHN renal): 2.28 µM; TGI (ACHN renal): 8.31 µM; GI50 (NCI-H460 lung): 0.397 µM; TGI (NCI-H460 lung): > 100 µM; GI50 (HT29 colon): 3.46 µM; TGI (HT29 colon): > 100 µM; GI50 (MDA-MB-231 breast): 1.89 µM; TGI (MDA-MB-231 breast): 4.87 µM; GI50 (U251 CNS): 0.494 µM; TGI (U251 CNS): > 100 µM; GI50 (OVCAR-4 ovarian): 3.19 µM; TGI (OVCAR-4 ovarian): > 100 µM; GI50 (IGROV1 ovarian): 3.33 µM; TGI (IGROV1 ovarian): > 100 µM; GI50 (SW-620 colon): 1.37 µM; TGI (SW-620 colon): > 100 µM; GI50 (SNB-19 CNS): 1.47 µM; TGI (SNB-19 CNS): > 100 µM; GI50 (786-0 renal): 3.81 µM; TGI (786-0 renal): 70.2 µM; GI50 (K-562 leukemia): 0.622 µM; TGI (K-562 leukemia): > 100 µM; GI50 (CCRF-CEM leukemia): 2.53 µM; TGI (CCRF-CEM leukemia): > 100 µM; GI50 (SK-MEL-28 melanoma): 4.37 µM; TGI (SK-MEL-28 melanoma): > 100 µM; GI50 (T-47D breast): 3.08 µM; TGI (T-47D breast): > 100 µM; GI50 (SNB-75 CNS): 1.52 µM; TGI (SNB-75 CNS): 25.5 µM; GI50 (SN12C renal): 0.619 µM; TGI (SN12C renal): 6.13 µM; GI50 (HOP-62 NSCLC): 2.37 µM; TGI (HOP-62 NSCLC): > 100 µM; GI50 (NCI/ADR-RES ovarian): 3.95 µM; TGI (NCI/ADR-RES ovarian): > 100 µM
